In patent US20100168228A1, “NOVEL CHEMOTHERAPEUTIC AGENTS AGAINST INFLAMMATION AND CANCER” (RELIANCE LIFE SCIENCES PVT. LTD., priority 2006, published 2010):

Tests used:
[1] = test system: TNFα; test: Bioassay of TNFα production by LPS activated RAW 264.7 macrophages using L929 cell line; assay type: cell-based; conditions: Mus musculus; L929 + ActD + supernatant from LPS + compound (10 μM) treated RAW 264.7 macrophage; crystal violet; mean ± S.D. of triplicate; read-out: PERCENTAGE CELL SURVIVAL ± S.D.
Procedure: Measurement of TNFα in culture medium or supernatant is performed using immunoassay and bioassay. Bioassay was used for the measurement of bioactive TNFα production in the culture medium.
TNFα secretion into the medium by LPS activated macrophage was assayed using L929 tumorigenic murine cells (ATCC) specifically sensitive to TNFα. L929 cell cytotoxicity assay was performed by a modified method (Sano et al., The Journal of Immunology, 1999, 163: 387-395 The Journal of Immunology, 1999, 163: 387-395) based on that described elsewhere (Flick D A, Gifford G E. J Immunol Methods. 1984 Mar. 30; 68(1-2): 167-175). Briefly, the L929 cells (log phase cells) were seeded into a flat bottom 96 well plates (6×10^4/well) in 100 μl volume of RPMI 1640 containing 2% FCS and incubated overnight at 37° C. in a 5% CO2 incubator. A working dilution of the culture supernatant collected from LPS (200 ng/ml) activated macrophage in a volume of 100 μl per well was first tested to obtain 70-75% cytotoxicity equivalent to […] of recombinant TNFα standard to the TNFα sensitive L929 cell line. After incubation of the L929 cells appropriate fixed dilution of the culture supernatant collected from the compound treated (10 μM) wells, containing the LPS stimulated macrophages in a volume of 100 μl with 2 μg/ml Actinomycin D (Act D) was taken and added to the L929 cells and the cells were incubated at room temperature for 15 min followed by 18 h incubation at 37° C. overnight with 5% CO2. On the next day the medium was removed and the cells were stained with 0.2% (w/v) crystal violet for 10 minutes. The wells were gently rinsed with water, and 33% acetic acid (100 μl/well) was added to extract the retained crystal violet. The absorbance at 570 nm was finally measured.
Tumor necrosis factor-α can cause direct cytotoxicity to the lung fibroblast cell line (L929). Bioassay of TNF α is designated on the basis of this cytotoxicity of TNF α, which can be used for the identification of murine TNF α activity in tissue culture supernatants. Culture supernatant collected from the synthetic molecules treated well containing LPS stimulated macrophage modulated the extent of cytotoxicity to the L929 cells (see Table 1).

[2] = test system: RAW 264.7 cells; test: Nitrite quantification (Griess) in LPS stimulated macrophages; assay type: cell-based, mouse; conditions: RAW 264.7 + LPS (200 ng/ml) + 10 μM compound, 24 h; LPS + DMSO control 14.560, basal 0.782
Procedure: NO2^− accumulation was used as an indicator of Nitric Oxide (NO) production in the medium as described previously (Green et al., 1982 Anal Biochem 126, 131-138). […] The isolated supernatants were mixed with an equal volume of Griess reagent (1% sulfanilamide, 0.1% naphthylenediamine dihydrochloride, and 2% phosphoric acid) and incubated at room temperature for 15 min. NaNO2 was used to generate a standard curve, and nitrite production was determined by measuring the optical density at 540 nm.
To estimate the anti-inflammatory effects of all the synthetic molecules listed in this study, we measured the accumulation of nitrite, the stable metabolite of NO, in the culture media using Griess reagent.
To investigate the effect of CAMVE on NO production, we measured the accumulation of nitrite, the stable metabolite of NO, in the culture media using Griess reagent. To investigate the effect of CAMVE on NO production, Raw 264.7 cells, pretreated with indicated concentrations of CAMVE for 1 h were incubated with LPS (250 ng/ml) for 24 h.

Row | SMILES | viability at 10 µM [1] [%] | CONCENTRATION OF NITRITE μM ± SD [2] [µM]
1 | COC(=O)c1ccc(OC(=O)c2cc(O)c(O)c(O)c2)c(OC)c1 [compound 26, 2-methoxy-4-(methoxycarbonyl)phenyl 3,4,5-trihydroxybenzoate] | 58.8 ± 2.15 | 6.138 ± 0.567
2 | COc1cc([C@@H]2Oc3c(O)cc(/C=C/C(=O)O)cc3[C@H]2C(=O)O)ccc1O [compound 28, 5-[(E)-2-carboxyvinyl]-7-hydroxy-2β-(4-hydroxy-3-methoxyphenyl)-2,3-dihydro-1-benzofuran-3α-carboxylic acid] | 66.4 ± 1.11 | 7.604 ± 0.204
